Results taken from PMC12587390, “Metabolite Identification Data in Drug Discovery, Part 1: Data Generation and Trend Analysis” (Molecular Pharmaceutics, 2025).
Converted amounts (≈) assume the structure as drawn. Values belong to the molecule of their own block, whether it stands above or below them.

Tests used:
[1] = MetID on in vivo dog samples (plasma, urine); parameters: species or system dog (beagles); conditions: for % of the total MS area, Dog Plasma (Female): sampled at 3 h and 30 min
Method: (§1) The workup procedure could vary somewhat depending on the compound and dose, but the general procedure was as follows: Two volumes of ACN/methanol (1:1, v:v) were added to the plasma samples and vortex-mixed to precipitate the proteins. Thereafter, the samples were centrifuged for 10 min (at 10,000 g and 4 °C), and the supernatants were diluted with one volume of water. The urine samples were diluted with one volume of ACN/methanol (1:1, v:v) and centrifuged for 10 min (at 10,000 g and 4 °C), followed by a 1:1 dilution with water.
(§2) Structural characterization of metabolites and metabolite profiling were performed using the Waters Acquity ultraperformance liquid chromatography (UPLC) system fitted to a Waters High-Resolution Mass Spectrometer (MS) (Xevo G2-S, Synapt G2-Si, or a Synapt XS MS). The Waters MS systems, equipped with an electrospray ionization (ESI) source, were operated in positive-ion sensitivity mode over a mass range m/z 50–1200 and in negative-ion sensitivity mode over a mass range m/z of 50–1200.
(§3) The reversed-phase gradient elution was performed on an Acquity U(H)-PLC BEH C18 column (2.1 × 100 mm, 1.7 μm, Waters) set at 45 °C. The mobile phases consisted of 0.1% FA in water (A) and ACN (B). […] The injection volume was 2 μL. The MS settings were optimized for the respective MS instrument. […] A scan time of 0.1 s was used, and data were acquired in centroid mode. Collision energy was set to “off” for the low-energy function, whereas in the high-energy MSe functions, the collision energies were typically ramped from 15 to 35 V in the trap cell, with constant collision energies of 20 V in their transfer cells. Cone voltage was set to 25 V for both low- and high-energy functions. For dedicated MS/MS, the m/z of the molecular ion was selected in the quadrupole, and the mass range for fragmentation analysis was typically set between 50 and 1200. The collision energies were either the same as those stated above for MSe data generation or optimized for a specific metabolite. Tune parameters for all MS analyses consisted of a capillary energy of 0.5 kV, sampling cone energy of 40 V, source temperature of 150 °C, desolvation temperature of 550 °C, cone gas flow of 0 L/h, desolvation gas flow of 1200 L/h, and nebulizer pressure of 6.5 bar.
(§4) Metabolite identification was conducted by processing the generated data using the MetaboLynx XS browser (Waters), MassMetaSite and the web interface ONIRO (Mass Analytica). […] Accurate masses of metabolites were determined from the protonated molecules in the positive ESI time-of-flight MS (ESI–TOF–MS) mode and from the deprotonated molecules in the negative ESI–TOF–MS mode. […] For those metabolites where no MS/MS data could be acquired, identification was based on the accurate mass of the molecular ion and the fragmentation seen in the MSe spectrum. Relative amounts of detected metabolites were calculated as % of the total MS area by dividing the MS peak area for the metabolite (or parent compound) by the combined MS peak area for the parent compound and all identified metabolites.

dog hepatocytes = assay: Metabolite identification in dog hepatocyte incubations; type: in vitro ADME
Method: (§5) Cryopreserved, pooled primary human, dog, and rat hepatocytes were obtained from BioIVT (previously Celsis IVT). L-15 Leibovitz buffer was placed in a water bath to reach 37 °C. Cryopreserved hepatocytes were transferred from a −150 °C freezer on dry ice and immediately immersed in a preheated water bath kept at 37 °C for thawing. When only a small ice crystal could be seen, the content was emptied into a 50 mL falcon tube filled with warm buffer (maximum four vials/falcon tube). The suspension was centrifuged at room temperature for 3 min at 50 g. The supernatant was removed, the pellet was resuspended in a small volume of buffer, and the falcon tube was refilled with buffer, followed by another centrifugation to wash away any remaining storage buffer. Thereafter, the supernatant was removed, and the pellet was dissolved in a small volume of buffer and diluted to a concentration of about 3–5 million cells/mL. After counting the cells using a Casy cell counter, the suspension was diluted to 1 million viable cells/mL and kept at room temperature until use. The viability cutoff was 80%.
(§6) An aliquot of 245 μL of hepatocyte suspension was added to a round-bottomed 96-deep-well plate using a manual multipipette. The deep-well plate was preincubated for 15 min at 37 °C and 13 Hz. Substrate solutions of the assay compounds were prepared by the robot in a 96-well plate as follows: 4 μL of 10 mM DMSO stock solution, followed by the addition of 96 μL of ACN:water (1:1, v:v) and mixing by shaking. 50 μL from each well were transferred to and combined in a new plate, resulting in 100 μL per well and a dilution of 1:1.
(§7) The reaction was started by the addition of 5 μL of 200 μM substrate solution to the preheated hepatocyte suspension, resulting in a final substrate concentration of 4 μM (0.04% DMSO, <0.5% ACN). The incubation was continued at 37 °C and 13 Hz. At each time point (0, 40, and 120 min), a 50 μL sample was taken out and quenched in 200 μL of cold ACN:methanol (1:1, v:v), and the stopped plates were centrifuged for 20 min (set at 4 °C and 4000 g). The supernatant was diluted by taking 50 μL and mixing it with 100 μL of water. Incubations of the positive controls, albendazole and dextromethorphan, were performed in parallel as described above.
as §2
(§8) The reversed-phase gradient elution was performed on an Acquity U(H)-PLC BEH C18 column (2.1 × 100 mm, 1.7 μm, Waters) set at 45 °C. The mobile phases consisted of 0.1% FA in water (A) and ACN (B). […] The injection volume was 2 μL. The MS settings were optimized for the respective MS instrument. […] A scan time of 0.1 s was used, and data were acquired in centroid mode. Collision energy was set to “off” for the low-energy function, whereas in the high-energy MSe functions, the collision energies were typically ramped from 15 to 35 V in the trap cell, with constant collision energies of 20 V in their transfer cells. Cone voltage was set to 25 V for both low- and high-energy functions. For dedicated MS/MS, the m/z of the molecular ion was selected in the quadrupole, and the mass range for fragmentation analysis was typically set between 50 and 1200. The collision energies were either the same as those stated above for MSe data generation or optimized for a specific metabolite.

[2] = MetID on in vivo rat plasma samples; parameters: species or system rat (Han Wistar)
Method: as §1, §2, §3, §4

rat hepatocytes = assay: Metabolite identification in rat hepatocyte incubations; type: in vitro ADME; conditions: Cmpd 28 incubated for 120 min, 4 μM
Method: as §5, §6
as §7, with “The supernatant was diluted by taking 50 μL and mixing it with 100 μL of water. Incubations of the positive controls, albendazole and dextromethorphan, were performed in parallel as described above.” left out

[3] = Thermodynamic solubility, shake-flask; conditions: 10 mM sodium phosphate buffer, 25 °C, pH 7.4, aqueous buffer, thermodynamic from solid
Method: Solubility was measured as the thermodynamic solubility using a shake-flask approach. Here, DMSO was evaporated from the compound stock solution as the first step. The “dried” compounds were then placed into 10 mM sodium phosphate buffer, adjusted to pH 7.4, and equilibrated at 25 °C for 24 h. The samples were centrifuged, and the solution was analyzed by LC-MS/MS to determine the amount of compound in solution.

human hepatocytes [4] = assay: Metabolic stability in human hepatocytes (HH CLint); type: in vitro ADME; conditions: 37 °C, 2 h
Method: Metabolic stability in human hepatocytes (HH CLint) was measured by incubating the cells with the test compound at 37 °C for 2 h. An aliquot of the mixture was taken at typically nine defined time points, and the metabolic reaction was stopped by adding ACN. The samples were centrifuged, and the supernatant was analyzed via LC-MS/MS. Intrinsic clearance (CLint) was calculated from the disappearance rate of the parent compound. ,

human hepatocytes [5] = assay: Metabolite identification in human hepatocyte incubations; type: in vitro ADME; conditions: 4 μM
Method: as §5, §6, §7, §2, §8

[6] = after Cmpd 16, semiquantitative
[7] = dog hepatocytes, incubated for 120 min
[8] = after Cmpd 16, oral, sampled at 60 min

Structure (SMILES): O=C(O)[C@H]1OC(OC(=O)[C@@H]2CCCC[C@H]2C(=O)c2ccc(-c3cc[nH]n3)cc2)[C@H](O)[C@@H](O)[C@@H]1O (stereo partly drawn) [Cmpd 16 M13]
% of the total MS area, Dog Plasma (Female) [1, 6]: 0.5%

Structure (SMILES): CN(C(=O)c1ccc(Cl)cc1)C(CN1CC(O)C1)C1CC1 (stereo not drawn) [Cmpd 47, CN(C(=O)c1ccc(Cl)cc1)[C@H](CN1CC(O)C1)C1CC1]
Parent, % of the total MS area ([1]; dog plasma, sampled at 30 min): 5%
Parent, % of the total MS area ([1]; dog urine, sampled at 7–24 h): 5%
Parent, % of the total MS area (dog hepatocytes; [7]): 83%

Structure (SMILES): O=C(O)[C@@H]1CCCC[C@H]1C(=O)c1ccc(-c2cc[nH]n2)cc1 [Cmpd 16 M10]
% of the total MS area, Dog Plasma (Female) [1, 6]: 1%
% of the total MS area, Rat Plasma (Female) [2, 8]: 1%
% of the total MS area, Rat Plasma (Male) [2, 8]: 1%

Structure (SMILES): Cc1nn(C)cc1NC(=O)[C@@H]1CCCC[C@H]1C(=O)c1ccc(-c2cc(CO)[nH]n2)cc1 [Cmpd 28 M4]
% of the total MS area, Rat Hepatocytes (Mixed gender) (rat hepatocytes): 3%
% of the total MS area, Dog Plasma (Female) ([1]; after Cmpd 28): 1%
% of the total MS area, Rat Plasma (Female) ([2]; after Cmpd 28, sampled at 4 h): not seen
% of the total MS area, Rat Plasma (Male) ([2]; after Cmpd 28, sampled at 4 h): not seen
% of the total MS area, Dog Hepatocytes (Mixed gender) (dog hepatocytes; Cmpd 28 incubated for 120 min, 4 μM): 2%

Structure (SMILES): CN(C(=O)c1ccc(C#N)cc1)C(CN1CC(O)C1)c1ccccc1 (stereo not drawn) [Cmpd 55, CN(C(=O)c1ccc(C#N)cc1)[C@H](CN1CC(O)C1)c1ccccc1]
N-oxide, % of the total MS area ([1]; dog plasma, sampled at 60 min): not observed
Parent, % of the total MS area ([1]; dog plasma, sampled at 60 min): 49%
N-oxide, % of the total MS area ([1]; dog urine, sampled at 7–24 h): not observed
Parent, % of the total MS area ([1]; dog urine, sampled at 7–24 h): 61%
N-oxide, % of the total MS area (dog hepatocytes; [7]): no N-oxidation was seen
Parent, % of the total MS area (dog hepatocytes; [7]): 97%

Structure (SMILES): COc1ccc(-c2nnc(C(=O)N3CC(Oc4ccc(CN5CC(C)(O)C5)c(C)c4)C3)o2)cc1 [Cmpd 81, COc1ccc(-c2nnc(C(=O)N3CC(Oc4ccc(CN5CC(C)(O)C5)c(C)c4)C3)o2)cc1]
solubility at 24 h [3]: 71 µM (≈ 33 µg/mL)
HH CLint (human hepatocytes [4]): 17 μL/min/1E6
Metabolites / metabolic pathways identified (human hepatocytes [5]): O-demethylation pathway remains the major metabolic route

Results, then the molecule that gave them:

% of the total MS area, Dog Plasma (Female) ([1]; after Cmpd 28): 34%
Structure (SMILES): Cc1cc(-c2ccc(C(=O)[C@@H]3CCCC[C@H]3C(=O)Nc3cn(C)nc3C)cc2)n[nH]1 [Cmpd 28, Cc1cc(-c2ccc(C(=O)[C@@H]3CCCC[C@H]3C(=O)Nc3cn(C)nc3C)cc2)n[nH]1]

% of the total MS area, Dog Plasma (Female) ([1]; after Cmpd 28): 0.5%
% of the total MS area, Rat Plasma (Female) ([2]; after Cmpd 28, sampled at 4 h): <1%
% of the total MS area, Rat Plasma (Male) ([2]; after Cmpd 28, sampled at 4 h): 1%
Structure (SMILES): Cc1cc(-c2ccc(C(=O)[C@@H]3CCCC[C@H]3C(=O)Nc3c[nH]nc3C)cc2)n[nH]1 [Cmpd 28 M11]

% of the total MS area, Rat Plasma (Female) ([2]; after Cmpd 28, sampled at 4 h): 1%
% of the total MS area, Rat Plasma (Male) ([2]; after Cmpd 28, sampled at 4 h): 3%
Structure (SMILES): Cc1cc(-c2ccc(C(=O)[C@@H]3CCCC[C@H]3C(N)=O)cc2)n[nH]1 [Cmpd 28 M8]
